Read-outs that look alike come from different tables or passages of the source.
How the values were obtained:
Test in all cases: kinase profiling panel
Assay type in all cases: biochemical
CDK2-Cyclin A = CDK2-Cyclin A (Homo sapiens, UniProt P24941); conditions: read-out: % Activity Remaining
From the text: (§1) Protein kinase profiling against a Dundee panel of 140 protein kinases was undertaken at the International Centre for Protein Kinase Profiling. The result for each kinase was presented as a mean kinase activity of the reaction taken in triplicate relative to a control sample treated with DMSO. Assay conditions and abbreviations are available at http://www.kinase-screen.mrc.ac.uk.

CK1 gamma 2 = CK1 gamma 2 (Homo sapiens, UniProt P78368); conditions: read-out: % Activity Remaining
From the text: as §1

EPH-A2 = EPH-A2 (Homo sapiens, UniProt P29317); conditions: read-out: % Activity Remaining
From the text: as §1

ERK5 = ERK5 (Homo sapiens, UniProt Q13164); conditions: read-out: % Activity Remaining
ERK5, sequence (Q13164 whole entry): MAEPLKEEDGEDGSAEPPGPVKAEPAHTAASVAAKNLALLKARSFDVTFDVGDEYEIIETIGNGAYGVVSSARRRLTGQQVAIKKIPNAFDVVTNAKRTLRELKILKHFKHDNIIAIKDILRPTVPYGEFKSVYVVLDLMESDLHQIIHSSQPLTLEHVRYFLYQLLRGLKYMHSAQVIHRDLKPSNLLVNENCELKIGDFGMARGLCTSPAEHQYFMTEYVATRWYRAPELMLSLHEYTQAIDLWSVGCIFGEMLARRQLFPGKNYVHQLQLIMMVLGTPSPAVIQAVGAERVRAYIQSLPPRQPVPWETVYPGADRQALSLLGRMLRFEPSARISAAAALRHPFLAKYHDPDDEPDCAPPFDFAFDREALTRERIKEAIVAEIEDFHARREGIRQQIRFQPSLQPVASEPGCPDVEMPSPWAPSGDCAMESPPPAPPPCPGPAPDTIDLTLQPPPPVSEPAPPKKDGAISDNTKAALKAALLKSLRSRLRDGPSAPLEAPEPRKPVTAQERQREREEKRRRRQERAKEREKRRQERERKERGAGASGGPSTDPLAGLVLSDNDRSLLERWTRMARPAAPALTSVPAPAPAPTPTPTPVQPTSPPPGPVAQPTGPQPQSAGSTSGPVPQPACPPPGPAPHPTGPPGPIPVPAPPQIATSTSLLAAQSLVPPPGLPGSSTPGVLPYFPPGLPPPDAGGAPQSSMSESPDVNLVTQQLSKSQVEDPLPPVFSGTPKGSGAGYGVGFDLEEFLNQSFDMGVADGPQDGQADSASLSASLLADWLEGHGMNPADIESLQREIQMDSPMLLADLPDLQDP
From the text: as §1

GSK3 beta = GSK3 beta (Homo sapiens, UniProt P49841); conditions: read-out: % Activity Remaining
From the text: as §1

HER4 = HER4 (Homo sapiens, UniProt Q15303); conditions: read-out: % Activity Remaining
From the text: as §1

IR = IR (Homo sapiens, UniProt P06213); conditions: read-out: % Activity Remaining
From the text: as §1

Lck = Lck (Homo sapiens, UniProt P06239); conditions: read-out: % Activity Remaining
Lck, sequence (P06239 whole entry): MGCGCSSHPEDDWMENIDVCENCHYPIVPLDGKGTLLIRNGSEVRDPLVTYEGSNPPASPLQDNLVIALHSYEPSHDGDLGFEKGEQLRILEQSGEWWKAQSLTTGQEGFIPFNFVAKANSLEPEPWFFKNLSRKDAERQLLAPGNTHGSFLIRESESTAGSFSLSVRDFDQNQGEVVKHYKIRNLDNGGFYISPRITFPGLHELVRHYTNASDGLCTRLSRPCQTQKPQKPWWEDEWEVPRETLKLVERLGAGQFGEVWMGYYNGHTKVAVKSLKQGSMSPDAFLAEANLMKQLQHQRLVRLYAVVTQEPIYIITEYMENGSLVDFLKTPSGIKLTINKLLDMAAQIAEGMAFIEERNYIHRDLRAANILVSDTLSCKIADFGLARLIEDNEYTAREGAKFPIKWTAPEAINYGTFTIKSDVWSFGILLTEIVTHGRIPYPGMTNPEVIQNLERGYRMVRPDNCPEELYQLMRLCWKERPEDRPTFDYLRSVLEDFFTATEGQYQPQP
From the text: as §1

MAP4K5 = MAP4K5 (Homo sapiens, UniProt Q9Y4K4); conditions: read-out: % Activity Remaining
MAP4K5, sequence (Q9Y4K4 whole entry): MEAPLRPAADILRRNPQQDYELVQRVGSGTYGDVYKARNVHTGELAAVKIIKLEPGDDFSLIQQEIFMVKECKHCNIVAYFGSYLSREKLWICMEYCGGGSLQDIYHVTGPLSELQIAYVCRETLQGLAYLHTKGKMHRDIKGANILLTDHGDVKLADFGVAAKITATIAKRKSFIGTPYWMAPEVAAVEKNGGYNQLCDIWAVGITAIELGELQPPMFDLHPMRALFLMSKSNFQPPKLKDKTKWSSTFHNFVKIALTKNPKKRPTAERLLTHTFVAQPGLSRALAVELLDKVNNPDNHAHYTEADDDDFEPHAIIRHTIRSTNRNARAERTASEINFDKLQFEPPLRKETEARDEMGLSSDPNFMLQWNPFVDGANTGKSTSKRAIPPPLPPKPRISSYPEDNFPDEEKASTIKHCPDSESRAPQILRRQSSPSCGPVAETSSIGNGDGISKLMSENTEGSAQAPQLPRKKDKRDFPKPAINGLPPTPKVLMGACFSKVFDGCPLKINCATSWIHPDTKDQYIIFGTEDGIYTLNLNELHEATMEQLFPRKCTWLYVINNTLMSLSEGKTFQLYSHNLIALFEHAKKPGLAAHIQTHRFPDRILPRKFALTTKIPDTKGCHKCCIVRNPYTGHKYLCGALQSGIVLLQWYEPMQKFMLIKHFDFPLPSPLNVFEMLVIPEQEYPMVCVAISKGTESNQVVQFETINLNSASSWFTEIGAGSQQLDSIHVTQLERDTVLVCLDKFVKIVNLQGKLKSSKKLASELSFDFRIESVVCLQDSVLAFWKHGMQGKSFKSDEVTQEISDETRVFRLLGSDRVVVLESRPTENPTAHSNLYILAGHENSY
From the text: as §1

MARK2 = MARK2 (Homo sapiens, UniProt Q7KZI7); conditions: read-out: % Activity Remaining
From the text: as §1

MKK6 = target: T1, MKK6 (Homo sapiens, UniProt P52564); conditions: read-out: % Activity Remaining
T1 sequence (P52564 1-334): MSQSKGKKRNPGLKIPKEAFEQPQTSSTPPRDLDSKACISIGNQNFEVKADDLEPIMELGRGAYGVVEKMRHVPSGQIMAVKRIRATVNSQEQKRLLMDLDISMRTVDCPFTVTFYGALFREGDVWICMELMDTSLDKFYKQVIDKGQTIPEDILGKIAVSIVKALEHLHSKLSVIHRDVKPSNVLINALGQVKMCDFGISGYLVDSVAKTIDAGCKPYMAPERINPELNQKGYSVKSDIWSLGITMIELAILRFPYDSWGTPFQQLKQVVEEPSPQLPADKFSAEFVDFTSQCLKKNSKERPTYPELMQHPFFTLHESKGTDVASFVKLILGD
From the text: as §1

MNK1 = MNK1 (Homo sapiens, UniProt Q9BUB5); conditions: read-out: % Activity Remaining
From the text: as §1

MSK1 = MSK1 (Homo sapiens, UniProt O75582); conditions: read-out: % Activity Remaining
From the text: as §1

PHK = conditions: 1 µM
From the text: as §1

PKB alpha = PKB alpha (Homo sapiens, UniProt P31749); conditions: read-out: % Activity Remaining
From the text: as §1

PKC alpha = PKC alpha (Homo sapiens, UniProt P17252); conditions: read-out: % Activity Remaining
From the text: as §1

PKC gamma = PKC gamma (Homo sapiens, UniProt P05129); conditions: read-out: % Activity Remaining
From the text: as §1

TTBK2 = TTBK2 (Homo sapiens, UniProt Q6IQ55); conditions: read-out: % Activity Remaining
TTBK2, sequence (Q6IQ55 whole entry): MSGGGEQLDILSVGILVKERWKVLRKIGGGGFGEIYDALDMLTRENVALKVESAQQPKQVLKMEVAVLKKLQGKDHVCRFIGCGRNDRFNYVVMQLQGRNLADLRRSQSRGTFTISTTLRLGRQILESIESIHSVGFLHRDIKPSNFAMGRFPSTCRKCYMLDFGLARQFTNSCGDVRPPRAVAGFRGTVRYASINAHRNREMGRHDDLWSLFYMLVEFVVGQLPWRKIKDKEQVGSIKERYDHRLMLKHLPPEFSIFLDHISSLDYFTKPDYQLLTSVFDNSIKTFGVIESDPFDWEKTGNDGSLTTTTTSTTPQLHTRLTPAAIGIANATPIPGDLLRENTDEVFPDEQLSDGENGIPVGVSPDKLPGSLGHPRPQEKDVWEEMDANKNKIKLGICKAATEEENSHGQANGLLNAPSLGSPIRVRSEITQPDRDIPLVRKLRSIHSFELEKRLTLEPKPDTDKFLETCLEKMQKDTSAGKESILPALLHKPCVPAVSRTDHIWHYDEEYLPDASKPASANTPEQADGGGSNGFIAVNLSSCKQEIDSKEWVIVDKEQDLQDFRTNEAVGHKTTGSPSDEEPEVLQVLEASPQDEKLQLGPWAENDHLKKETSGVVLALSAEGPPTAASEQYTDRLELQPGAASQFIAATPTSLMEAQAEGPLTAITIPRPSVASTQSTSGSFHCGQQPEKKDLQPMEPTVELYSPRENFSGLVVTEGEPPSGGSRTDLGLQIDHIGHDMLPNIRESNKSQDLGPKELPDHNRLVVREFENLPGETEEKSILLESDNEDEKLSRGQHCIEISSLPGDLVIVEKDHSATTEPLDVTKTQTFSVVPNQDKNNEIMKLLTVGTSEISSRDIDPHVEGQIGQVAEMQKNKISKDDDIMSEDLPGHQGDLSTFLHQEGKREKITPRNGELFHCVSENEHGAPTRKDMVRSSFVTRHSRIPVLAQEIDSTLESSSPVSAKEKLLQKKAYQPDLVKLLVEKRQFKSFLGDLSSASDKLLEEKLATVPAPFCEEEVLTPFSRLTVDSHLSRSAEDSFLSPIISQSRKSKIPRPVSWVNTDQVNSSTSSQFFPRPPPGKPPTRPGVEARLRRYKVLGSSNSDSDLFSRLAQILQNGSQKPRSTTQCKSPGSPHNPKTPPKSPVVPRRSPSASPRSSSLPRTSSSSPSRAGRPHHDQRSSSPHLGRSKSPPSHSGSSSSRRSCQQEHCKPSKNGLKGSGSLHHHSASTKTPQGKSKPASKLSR
From the text: as §1

TTK = target: T2, TTK (Homo sapiens, UniProt P33981); conditions: read-out: % Activity Remaining
T2 sequence (P33981 1-857): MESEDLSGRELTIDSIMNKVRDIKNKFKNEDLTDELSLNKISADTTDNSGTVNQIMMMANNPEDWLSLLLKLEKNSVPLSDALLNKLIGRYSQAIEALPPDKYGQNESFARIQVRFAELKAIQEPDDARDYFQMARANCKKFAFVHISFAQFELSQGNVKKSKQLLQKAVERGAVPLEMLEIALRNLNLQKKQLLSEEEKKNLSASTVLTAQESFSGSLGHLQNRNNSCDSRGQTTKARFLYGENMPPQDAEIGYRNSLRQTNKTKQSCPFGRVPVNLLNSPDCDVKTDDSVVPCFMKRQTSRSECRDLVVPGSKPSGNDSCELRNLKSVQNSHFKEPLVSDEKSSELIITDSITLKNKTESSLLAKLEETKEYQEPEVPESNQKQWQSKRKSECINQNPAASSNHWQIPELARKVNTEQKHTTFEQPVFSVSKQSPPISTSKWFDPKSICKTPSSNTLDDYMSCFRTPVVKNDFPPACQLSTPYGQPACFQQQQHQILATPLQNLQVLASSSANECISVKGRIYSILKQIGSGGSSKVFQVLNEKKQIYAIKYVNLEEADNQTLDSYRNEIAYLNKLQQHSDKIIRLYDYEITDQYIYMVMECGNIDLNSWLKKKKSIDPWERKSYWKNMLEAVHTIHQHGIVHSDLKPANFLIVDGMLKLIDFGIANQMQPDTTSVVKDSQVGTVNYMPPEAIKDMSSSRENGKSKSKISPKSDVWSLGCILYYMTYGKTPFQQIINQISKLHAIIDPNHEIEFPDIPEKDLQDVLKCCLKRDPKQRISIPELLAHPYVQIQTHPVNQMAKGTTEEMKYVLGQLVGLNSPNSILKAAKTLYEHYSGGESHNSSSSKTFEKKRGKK
From the text: as §1

| Structure (SMILES) | remaining activity at 1 µM (CDK2-Cyclin A) [%] | remaining activity at 1 µM (CK1 gamma 2) [%] | remaining activity at 1 µM (EPH-A2) [%] | remaining activity at 1 µM (ERK5) [%] | remaining activity at 1 µM (GSK3 beta) [%] | remaining activity at 1 µM (HER4) [%] | remaining activity at 1 µM (IR) [%] | remaining activity at 1 µM (Lck) [%] | remaining activity at 1 µM (MAP4K5) [%] | remaining activity at 1 µM (MARK2) [%] | remaining activity at 1 µM (MKK6) [%] | remaining activity at 1 µM (MNK1) [%] | remaining activity at 1 µM (MSK1) [%] | % Activity Remaining (PHK) [%] | remaining activity at 1 µM (PKB alpha) [%] | remaining activity at 1 µM (PKC alpha) [%] | remaining activity at 1 µM (PKC gamma) [%] | remaining activity at 1 µM (TTBK2) [%] | remaining activity at 1 µM (TTK) [%] | remaining activity at 1 µM (CDK2-Cyclin A; 1 µM) [%] | other results |
| --- | --- | --- | --- | --- | --- | --- | --- | --- | --- | --- | --- | --- | --- | --- | --- | --- | --- | --- | --- | --- | --- |
| COc1ccc(Cl)c(S(=O)(=O)Nc2ccc(-c3nc(OC[C@H]4CNCCO4)c4c(C)n[nH]c4n3)cc2)c1 [290-R, reference compound] | 94 | 112 | 109 | 84 | 90 | 102 | 102 | 89 | 19 | 113 | 102 | 87 | 10 | 97 | 49 | 113 | 101 | 114 | 76 | – | – |
| Cc1ccc(F)c(S(=O)(=O)Nc2ccc(-c3nc(OC[C@H]4CNCCO4)c4cn[nH]c4n3)cc2)c1 [308-R, reference compound] | 61 | 67 | 113 | 73 | 92 | 67 | 110 | 98 | 63 | 94 | 66 | 77 | 7 | 83 | 96 | 135 | 90 | 87 | 91 | – | – |
| Cc1ccc(F)c(S(=O)(=O)Nc2ccc(-c3nc(OC[C@H]4CN(CCCCCCOCCOCCOCC(=O)N[C@H](C(=O)N5C[C@H](O)C[C@H]5C(=O)NCc5ccc(-c6scnc6C)cc5)C(C)(C)C)CCO4)c4cn[nH]c4n3)cc2)c1 [SGK3-PROTAC1] | – | – | – | – | – | – | – | – | – | – | – | – | – | 113 | – | – | – | – | – | 101 | remaining activity at 1 µM (CK1 gamma 2; 1 µM): 101%; remaining activity at 1 µM (EPH-A2; 1 µM): 94%; remaining activity at 1 µM (ERK5; 1 µM): 102%; remaining activity at 1 µM (GSK3 beta; 1 µM): 108%; remaining activity at 1 µM (HER4; 1 µM): 92%; remaining activity at 1 µM (IR; 1 µM): 103%; remaining activity at 1 µM (Lck; 1 µM): 124%; remaining activity at 1 µM (MAP4K5; 1 µM): 99%; remaining activity at 1 µM (MARK2; 1 µM): 102%; remaining activity at 1 µM (MKK6; 1 µM): 123%; remaining activity at 1 µM (MNK1; 1 µM): 108%; remaining activity at 1 µM (MSK1; 1 µM): 50%; remaining activity at 1 µM (PKB alpha; 1 µM): 105%; remaining activity at 1 µM (PKC alpha; 1 µM): 121%; remaining activity at 1 µM (PKC gamma; 1 µM): 103%; remaining activity at 1 µM (TTBK2; 1 µM): 94%; remaining activity at 1 µM (TTK; 1 µM): 89% |
| Cc1ccc(F)c(S(=O)(=O)Nc2ccc(-c3nc(OC[C@H]4CN(CCCCCCOCCOCCOCC(=O)N[C@H](C(=O)N5C[C@@H](O)C[C@H]5C(=O)NCc5ccc(-c6scnc6C)cc5)C(C)(C)C)CCO4)c4cn[nH]c4n3)cc2)c1 [cisSGK3-PROTAC1] | – | – | – | – | – | – | – | – | – | – | – | – | – | 122 | – | – | – | – | – | 103 | remaining activity at 1 µM (CK1 gamma 2; 1 µM): 106%; remaining activity at 1 µM (EPH-A2; 1 µM): 104%; remaining activity at 1 µM (ERK5; 1 µM): 108%; remaining activity at 1 µM (GSK3 beta; 1 µM): 106%; remaining activity at 1 µM (HER4; 1 µM): 103%; remaining activity at 1 µM (IR; 1 µM): 94%; remaining activity at 1 µM (Lck; 1 µM): 116%; remaining activity at 1 µM (MAP4K5; 1 µM): 101%; remaining activity at 1 µM (MARK2; 1 µM): 112%; remaining activity at 1 µM (MKK6; 1 µM): 108%; remaining activity at 1 µM (MNK1; 1 µM): 103%; remaining activity at 1 µM (MSK1; 1 µM): 56%; remaining activity at 1 µM (PKB alpha; 1 µM): 117%; remaining activity at 1 µM (PKC alpha; 1 µM): 118%; remaining activity at 1 µM (PKC gamma; 1 µM): 100%; remaining activity at 1 µM (TTBK2; 1 µM): 90%; remaining activity at 1 µM (TTK; 1 µM): 99% |

Source: PMC6757289, “Design and Characterization of SGK3-PROTAC1, an Isoform Specific SGK3 Kinase PROTAC Degrader” (ACS Chemical Biology, 2019)
